Measured values reported in ChEMBL document CHEMBL1124877, “Synthesis and biological evaluation of 4-fluoro-, 7-fluoro-, and 4,7-difluoro-5,6-dihydroxytryptamines” (J Med Chem, 1990).

How the values were obtained:
Assay type in all cases: functional, cell-based
Settings in all cases: Mus musculus, N2a
[1] = Effect on the uptake of [3H]5-HT into differentiated N-2a cells.
[2] = Inhibition of [3H]- Thymidine incorporation into the DNA of differentiated neuroblastoma clone N-2a cells
[3] = Inhibition of [3H]- Thymidine incorporation into the DNA of differentiated neuroblastoma clone N-2a cells.

| Structure (SMILES) | IC50 [1] | IC50 [2] | IC50 [3] |
| --- | --- | --- | --- |
| NCCc1c[nH]c2cc(O)c(O)cc12 | 17.8 µM | 92 µM | – |
| CN1CC(=O)NC1=N.NCCc1c[nH]c2cc(O)c(O)c(F)c12 | 0.55 µM | – | 117 µM |
| CN1CC(=O)NC1=N.NCCc1c[nH]c2c(F)c(O)c(O)c(F)c12 | 1.36 µM | – | 135 µM |
| CN1CC(=O)NC1=N.NCCc1c[nH]c2c(F)c(O)c(O)cc12 | 0.76 µM | – | 125 µM |
